The source of these data is article PMC10864382, “Targeting yeast topoisomerase II by imidazo and triazoloacridinone derivatives resulting in their antifungal activity” (Scientific Reports, 2024).

The target of this assay is T1, yeast topoisomerase II (yTOPOII) (Saccharomyces cerevisiae, UniProt P06786).
T1 construct: gene TOP2; purified enzyme, commercial (Inspiralis Limited, UK)
T1 sequence (P06786 1-1428): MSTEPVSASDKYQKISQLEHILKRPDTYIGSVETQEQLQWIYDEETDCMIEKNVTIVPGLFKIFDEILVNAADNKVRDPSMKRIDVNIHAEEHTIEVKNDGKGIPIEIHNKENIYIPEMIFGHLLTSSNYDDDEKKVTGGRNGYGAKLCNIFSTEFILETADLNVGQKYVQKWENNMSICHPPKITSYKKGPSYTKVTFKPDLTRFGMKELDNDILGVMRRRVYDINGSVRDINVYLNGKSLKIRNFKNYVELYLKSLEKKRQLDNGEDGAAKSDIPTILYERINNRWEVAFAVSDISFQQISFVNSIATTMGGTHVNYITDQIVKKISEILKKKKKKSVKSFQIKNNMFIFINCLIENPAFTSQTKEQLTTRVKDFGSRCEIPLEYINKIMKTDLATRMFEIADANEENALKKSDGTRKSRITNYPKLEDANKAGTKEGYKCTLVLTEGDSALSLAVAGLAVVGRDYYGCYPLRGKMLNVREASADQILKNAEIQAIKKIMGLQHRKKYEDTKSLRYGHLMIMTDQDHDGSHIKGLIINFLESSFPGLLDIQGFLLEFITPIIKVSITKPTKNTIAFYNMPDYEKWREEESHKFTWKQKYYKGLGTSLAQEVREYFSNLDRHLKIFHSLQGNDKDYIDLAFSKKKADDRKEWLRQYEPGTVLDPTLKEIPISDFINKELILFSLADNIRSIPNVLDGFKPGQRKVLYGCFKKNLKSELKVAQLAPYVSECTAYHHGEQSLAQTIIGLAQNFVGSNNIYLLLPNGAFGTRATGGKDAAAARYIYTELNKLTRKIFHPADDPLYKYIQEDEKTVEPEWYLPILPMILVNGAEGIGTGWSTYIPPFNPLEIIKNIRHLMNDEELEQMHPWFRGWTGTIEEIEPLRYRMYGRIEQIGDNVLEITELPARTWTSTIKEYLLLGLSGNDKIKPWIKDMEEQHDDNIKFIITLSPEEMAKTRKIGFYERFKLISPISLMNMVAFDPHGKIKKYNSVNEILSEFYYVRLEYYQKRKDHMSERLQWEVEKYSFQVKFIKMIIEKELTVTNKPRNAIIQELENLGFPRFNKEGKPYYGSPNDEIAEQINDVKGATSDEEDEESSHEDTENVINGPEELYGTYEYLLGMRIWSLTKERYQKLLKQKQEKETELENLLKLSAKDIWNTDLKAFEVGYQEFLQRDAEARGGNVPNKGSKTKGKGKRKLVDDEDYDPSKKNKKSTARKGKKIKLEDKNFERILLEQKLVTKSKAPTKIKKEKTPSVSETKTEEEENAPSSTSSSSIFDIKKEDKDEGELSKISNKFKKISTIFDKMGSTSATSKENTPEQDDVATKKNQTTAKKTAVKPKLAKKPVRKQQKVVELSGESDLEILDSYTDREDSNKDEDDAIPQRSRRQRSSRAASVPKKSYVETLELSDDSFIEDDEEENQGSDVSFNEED
Description: gel-based relaxation of supercoiled plasmid DNA, densitometry. It is filed as biochemical. The text has this:
gel-based relaxation of supercoiled plasmid DNA, densitometry on yeast topoisomerase II (yTOPOII)
A word on the IC50: it is the concentration that gives 50% inhibition. Compound `CN(C)CCCNc1ccc2nnn3c4ccc(O)cc4c(=O)c1c23` [C-1305] displayed an IC50 of 18.2 ± 1.4 µM.

In turn, `CCN(CC)CCNc1ccc2ncn3c4ccc(O)cc4c(=O)c1c23` [C-1311] came in with an IC50 of 16.6 ± 1.3 µM.

`CCN(CC)CCNc1ccc2ncn3c4ccc(OC)cc4c(=O)c1c23` [C-1330]: 13.7 ± 1.1 µM corresponded to half-maximal inhibition (IC50).

In turn, `Cc1ccc2c(c1)c(=O)c1c(NCCCN(C)C)ccc3nnn2c31` [IKE1, 5-[-(3′-Dimethylamino)propylamino]-8-methyl-6H-[1–3]-triazolo[4,5,l-de]acridin-6-one] showed an IC50 of 13.4 ± 1.1 µM.

In turn, `CCN(CC)CCCNc1ccc2nnn3c4ccc(C)cc4c(=O)c1c23` [IKE2, 5-[-(3′-Diethylamino)propylamino]-8-methyl-6H-[1–3]-triazolo[4,5,l-de]acridin-6-one] gave an IC50 of 13.3 ± 1.1 µM.

For the compound `COc1ccc2c(c1)c(=O)c1c(NCCCN(C)C)ccc3nnn2c31` [IKE3, 5-[-(3′-Dimethylamino)propylamino]-8-methoxy-6H-[1–3]-triazolo[4,5,l-de]acridin-6-one], the IC50 came to 13.2 ± 1.1 µM.

Turning to `CCN(CC)CCCNc1ccc2nnn3c4ccc(OC)cc4c(=O)c1c23` [IKE4, 5-[-(3′-Diethylamino)propylamino]-8-methoxy-6H-[1–3]-triazolo[4,5,l-de]acridin-6-one], the midpoint of inhibition, the IC50, lay at 13.3 ± 1.2 µM.

In turn, `COc1ccc2c(c1)c(=O)c1c(NCCCN)ccc3nnn2c31` [IKE5, 5-[-(3′-Aminopropyl)amino]-8-methoxy-6H-[1–3]-triazolo[4,5,l-de]acridin-6-one] showed an IC50 of 7.7 ± 1.1 µM.

The compound `Cc1ccc2c(c1)c(=O)c1c(NCCCN)ccc3nnn2c31` [IKE6, 5-[-(3′-Aminopropyl)amino]-8-methyl-6H-[1–3]-triazolo[4,5,l-de]acridin-6-one] had an IC50 of 10.9 ± 1.1 µM.

In turn, `COc1ccc2c(c1)c(=O)c1c(NCCCNC(=O)[C@@H](N)CCCCN)ccc3nnn2c31` [IKE7, N′-{3-[(8-methoxy-6-oxo-6H-[1,2,3]triazolo[4,5,1-de]acridin-5-yl)amino]propyl} lysinamide] came in with an IC50 of 13.4 ± 1.1 µM.

Regarding `Cc1ccc2c(c1)c(=O)c1c(NCCCNC(=O)[C@@H](N)CCCCN)ccc3nnn2c31` [IKE8, N′-{3-[(8-methyl-6-oxo-6H-[1,2,3]triazolo[4,5,1-de]acridin-5-yl)amino]propyl} lysinamide], the IC50 turned out to be 15.2 ± 1.2 µM.

Compound `Cc1ccc2c(c1)c(=O)c1c(NCCN)ccc3ncn2c31` [IKE10, 5-[(2-aminoethyl)amino]-8-methyl-6H-imidazo[4,5,1-de]acridin-6-one] displayed an IC50 of 15.5 ± 1.3 µM.

In the case of `Cc1ccc2c(c1)c(=O)c1c(NCCNC(=O)[C@@H](N)CCCCN)ccc3ncn2c31` [IKE11, N-{2-[(8-methyl-6-oxo-6H-imidazo[4,5,1-de]acridin-5-yl)amino]ethyl}lysinamide], the midpoint of inhibition, the IC50, lay at 14.9 ± 1.1 µM.

In turn, `NCCNc1ccc2ncn3c4ccc(O)cc4c(=O)c1c23` [IKE12, 5-[(2-aminoethyl)amino]-8-hydroxy-6H-imidazo[4,5,1-de]acridin-6-one] gave an IC50 of 10.9 ± 1.1 µM.

`COc1ccc2c(c1)c(=O)c1c(NCCN)ccc3ncn2c31` [IKE13, 5-[(2-aminoethyl)amino]-8-methoxy-6H-imidazo[4,5,1-de]acridin-6-one] showed an IC50 of 6.2 ± 1.2 µM.

The compound `COc1ccc2c(c1)c(=O)c1c(NCCNC(=O)[C@@H](N)CCCCN)ccc3ncn2c31` [IKE14, N-{2-[(8-methoxy-6-oxo-6H-imidazo[4,5,1-de]acridin-5-yl)amino]ethyl}lysinamide] yielded an IC50 of 14.7 ± 1.1 µM.
